Source: patent publication US20240261422A1, “ANTHRACYCLINE ANTIBODY CONJUGATES” (SEAGEN INC., priority 2021, published 2024)

Assays:
[1] = test system: L540cy, 786-O, BxPC3, HL60, HL60/RV; conditions: for IC50s of cOKT9 conjugates: 24 h
[2] = test system: DEL/BVR anaplastic large cell lymphoma xenograft; test: DEL/BVR MDR+, CD30+ anaplastic large cell lymphoma xenograft model; assay type: in vivo, SCID mice; conditions: cAC10 S239C ADCs, average DAR 2; 3 mg/kg single dose i.p.
Procedure: (§1) All experiments were conducted in concordance with the Animal Care and Use Committee in a facility fully accredited by the Association for Assessment and Accreditation of Laboratory Animal Care. Efficacy experiments were conducted using the L540cy Hodgkin's lymphoma and DEL/BVR anaplastic large cell lymphoma xenograft models (Mol. Cancer Ther., 2018, 17(8), 1752-1760). Tumor cells, as a cell suspension, were implanted subcutaneously in immune-compromised SCID female mice. Upon tumor engraftment, the mice were randomized into study groups when the average tumor volume reached about 100 mm^3. The ADCs were dosed once via intraperitoneal injection. Tumor volume as a function of time was determined using the formula (L×W2)/2. Animals were euthanized when tumor volumes reached 1000 mm^3.
Anti-CD30 conjugates bearing PNU drug-linkers 29, 18, and 14 were further evaluated in a DEL/BVR MDR+, CD30+ anaplastic large cell lymphoma xenograft model. cAC10 antibody with the S239C mutation is conjugated to the PNU drug linkers with an average DAR of 2 to minimize the effects of ADC pharmacokinetics. Tumor-bearing mice were administered a 3 mg/kg single dose intraperitoneally (i.p.) of test article once the average tumor volume reached 100 mm^3 (typically on day 4). […] However, the conjugate comprising PNU linker 29 appeared to be non-efficacious, and only provided minimal tumor growth delay (FIG. 2). Untreated mice were used as negative controls.

786-O, MDR + RCC = test: In vitro growth inhibition (CellTiter-Glo, 96 h), 786-O; assay type: cell-based; conditions: cOKT9 ADCs, average DAR 8, 96 h
Procedure: (§2) Cell culture of cell lines as listed in Table 2-4 in log-phase growth were seeded in 96-well plates and grown for 24 h in cell culture media containing 150 μL RPMI 1640 supplemented with 20% FBS (see Mol. Cancer Ther., 2016, 15(5), 938-945 and Mol. Cancer Ther., 2018, 17(8), 1752-1760). Serial dilutions of free drugs or antibody-drug conjugates (final concentration between 0.004 nM and 1 μM) in cell culture media were prepared at 4× working concentrations; 50 μL of each dilution was added to the 96-well plates. Following addition of the drug or ADC, the cells were incubated with test articles (free drugs or ADCs) for 4 d at 37° C. After 96 h, growth inhibition was assessed by CellTiter-Glo® (Promega, Madison, WI) and luminescence was measured on a plate reader (brand, model).
(§3) Cells were treated for 96 hours with anthracycline analogues listed in Table 2, and then assessed for viability as described in the procedures as described above. […] ND denotes value not determined with that assay for the specified compound.
(§4) ADCs were prepared by full reduction of interchain disulfides to reveal 8-conjugatable cysteines/antibody, and subsequent alkylation with the maleimide-containing drug-linkers (Compounds 14, 18, 21, 24, 29, 32, 33, 34, and 48) according to the procedures described in Mol. Cancer Ther. 2018, 17(8). 1752-1760. Conjugates of antibody cOKT9 were prepared with anthracycline linkers. Cancer cell lines were treated with cOKT9 ADCs (average DAR of 8:1) for 96 h and then assessed for viability. […] ND denotes value not determined with that assay for the specified compound.

L540cy, HL = test: In vitro growth inhibition (CellTiter-Glo, 96 h), L540cy; assay type: cell-based
Procedure: as §2, §3, §4
(§5) Anti-CD30 ADCs comprising cAC10 antibody conjugated to drug-linkers 24, 32, 29, 18, 14, and 48 with an average DAR of 4 were prepared for evaluation on a CD30-expressing lymphoma cell line panel. […] Anti-CD30 conjugates bearing the PNU linkers 24, 32, 29, 18, and 14 were active on L540cy, DEL, and Karpas299 lymphoma cell lines, and conjugate 48 was active on L540cy and DEL cell lines, with IC50s ranging from 0.2-4 ng/mL.

DEL, ALCL = test: In vitro growth inhibition (CellTiter-Glo, 96 h), DEL; assay type: cell-based; conditions: cAC10 (anti-CD30) ADCs, average DAR 4
Procedure: as §2, §5

Karpas299, ALCL = test: In vitro growth inhibition (CellTiter-Glo, 96 h), Karpas299; assay type: cell-based; conditions: cAC10 (anti-CD30) ADCs, average DAR 4
Procedure: as §2, §5

HL60/RV, MDR + AML = test: In vitro growth inhibition (CellTiter-Glo, 96 h), HL60/RV; assay type: cell-based; conditions: cOKT9 ADCs, average DAR 8, 96 h
Procedure: as §2, §3, §4

[3] = test system: L540cy Hodgkin's lymphoma xenograft; test: L540cy CD30+ Hodgkin lymphoma xenograft model; assay type: in vivo, SCID mice; conditions: cAC10 S239C ADCs, average DAR 2; single dose i.p. at about 100 mm^3
Procedure: as §1
Anti-CD30 conjugates bearing PNU drug-linkers 29, 18, and 14 were evaluated in a CD30-expressing xenograft model as described above. cAC10 antibody with the S239C mutation is conjugated to the PNU drug linkers with an average DAR of 2 to minimize the effects of ADC pharmacokinetics. Tumor-bearing mice were administered a single dose intraperitoneally (i.p.) of test article once the average tumor volume reached 100 mm^3 (typically on day 8). Untreated mice were used as negative controls.

BxPC3, PancCa = test: In vitro growth inhibition (CellTiter-Glo, 96 h), BxPC3; assay type: cell-based; conditions: cOKT9 ADCs, average DAR 8, 96 h
Procedure: as §2, §3, §4

HL60, AML = test: In vitro growth inhibition (CellTiter-Glo, 96 h), HL60; assay type: cell-based; conditions: cOKT9 ADCs, average DAR 8, 96 h
Procedure: as §2, §3, §4

Ramos, CD30 − NHL = test: In vitro growth inhibition (CellTiter-Glo, 96 h), Ramos; assay type: cell-based; conditions: cAC10 (anti-CD30) ADCs, average DAR 4
Procedure: as §2, §5

L428, MDR + HL = test: In vitro growth inhibition (CellTiter-Glo, 96 h), L428; assay type: cell-based; conditions: cAC10 (anti-CD30) ADCs, average DAR 4
Procedure: as §2, §5

[4] = test system: CD30-expressing lymphoma cell line panel; assay type: cell-based; conditions: cAC10 ADC DAR 4
Procedure: as §2, §5

[5] = cAC10 (anti-CD30) ADCs, average DAR 4
[6] = cOKT9 ADCs, average DAR 8, 96 h

Row | Compound | IC50s of cOKT9 conjugates [1] | antitumor activity, DEL/BVR xenograft (FIG. 2) [2] | IC50 (ng/mL) 786-O, MDR + RCC (786-O, MDR + RCC) | IC50 (ng/mL) L540cy, HL (L540cy, HL; [5]) | IC50 (ng/mL) L540cy, HL (L540cy, HL; [6]) | IC50 (ng/mL) DEL, ALCL (DEL, ALCL) | IC50 (ng/mL) Karpas299, ALCL (Karpas299, ALCL) | IC50 (ng/mL) HL60/RV, MDR + AML (HL60/RV, MDR + AML) | antitumor activity, L540cy xenograft (FIG. 1) [3] | IC50 (ng/mL) BxPC3, PancCa (BxPC3, PancCa) | IC50 (ng/mL) HL60, AML (HL60, AML) | IC50 (ng/mL) Ramos, CD30 − NHL (Ramos, CD30 − NHL) | IC50 (ng/mL) L428, MDR + HL (L428, MDR + HL) | activity of cOKT9 conjugates across the panel of cancer cell lines ([1]; cOKT9 ADCs DAR 8, result in words) | IC50 values of anti-CD30 conjugate, highest dose tested [4]
1 | COc1cccc2c1C(=O)c1c(O)c3c(c(O)c1C2=O)C[C@@](O)(C(=O)NCCNC(=O)CNC(=O)CNC(=O)CNC(=O)CCN1C(=O)C=CC1=O)C[C@@H]3O[C@H]1C[C@H]2[C@H](O[C@@H]3[C@@H](OC)OCCN32)[C@H](C)O1 [Compound 18, (2S,4S)—N-(15-(2,5-dioxo-2,5-dihydro-1H-pyrrol-1-yl)-4,7,10,13-tetraoxo-3,6,9,12-tetraazapentadecyl)-2,5,12-trihydroxy-7-methoxy-4-(((1S,3R,4aS,9S,9aR,10aS)-9-methoxy-1-methyloctahydro-1H-pyrano[4′,3′:4,5]oxazolo[2,3-c][1,4]oxazin-3-yl)oxy)-6,11-dioxo-1,2,3,4,6,11-hexahydrotetracene-2-carboxamide] | 1 to 150 ng/mL | efficacious in suppressing tumor growth | A (IC50<10 ng/mL) | B (1 ng/mL≤IC50<10 ng/mL) | A (IC50<10 ng/mL) | A (IC50<1 ng/mL) | A (IC50<1 ng/mL) | D (IC50≥1000 ng/mL) | active with a majority of animals in a complete regression | A (IC50<10 ng/mL) | B (10 ng/mL≤IC50<100 ng/mL) | D (100 ng/mL≤IC50<500 ng/mL) | D (100 ng/mL≤IC50<500 ng/mL) |  | 
2 | COc1cccc2c1C(=O)c1c(O)c3c(c(O)c1C2=O)C[C@@](O)(C(=O)NCCNC(=O)CNC(=O)CNC(=O)CNC(=O)OCc1ccc(NC(=O)[C@H](C)NC(=O)[C@@H](NC(=O)CCN2C(=O)C=CC2=O)C(C)C)cc1)C[C@@H]3O[C@H]1C[C@H]2[C@H](O[C@@H]3[C@@H](OC)OCCN32)[C@H](C)O1 [Compound 29, 4-((S)-2-((S)-2-(3-(2,5-dioxo-2,5-dihydro-1H-pyrrol-1-yl)propanamido)-3-methylbutanamido)propanamido)benzyl (1,6,9,12-tetraoxo-1-((2S,4S)-2,5,12-trihydroxy-7-methoxy-4-(((1S,3R,4aS,9S,9aR,10aS)-9-methoxy-1-methyloctahydro-1H-pyrano[4′,3′:4,5]oxazolo[2,3-c][1,4]oxazin-3-yl)oxy)-6,11-dioxo-1,2,3,4,6,11-hexahydrotetracen-2-yl)-2,5,8,11-tetraazatridecan-13-yl)carbamate] | 1 to 150 ng/mL | non-efficacious | B (10 ng/mL≤IC50<100 ng/mL) | B (1 ng/mL≤IC50<10 ng/mL) | A (IC50<10 ng/mL) | A (IC50<1 ng/mL) | A (IC50<1 ng/mL) | D (IC50≥1000 ng/mL) | active with a majority of animals in a complete regression | A (IC50<10 ng/mL) | B (10 ng/mL≤IC50<100 ng/mL) | E (IC50≥500 ng/mL) | E (IC50≥500 ng/mL) |  | 
3 | COc1cccc2c1C(=O)c1c(O)c3c(c(O)c1C2=O)C[C@@](O)(C(=O)NCCNC(=O)CNC(=O)CNC(=O)CNC(=O)CCN1C(=O)C=CC1=O)C[C@@H]3O[C@H]1C[C@H](N2CCO[C@H](OC)C2)[C@H](O)[C@H](C)O1 [Compound 33, (2S,4S)—N-(15-(2,5-dioxo-2,5-dihydro-1H-pyrrol-1-yl)-4,7,10,13-tetraoxo-3,6,9,12-tetraazapentadecyl)-2,5,12-trihydroxy-4-(((2R,4S,5S,6S)-5-hydroxy-4-((S)-2-methoxymorpholino)-6-methyltetrahydro-2H-pyran-2-yl)oxy)-7-methoxy-6,11-dioxo-1,2,3,4,6,11-hexahydrotetracene-2-carboxamide] |  |  | D (IC50≥1000 ng/mL) |  | D (IC50≥1000 ng/mL) |  |  | D (IC50≥1000 ng/mL) |  | D (IC50≥1000 ng/mL) | D (IC50≥1000 ng/mL) |  |  | inactive | > 20,000 ng/ml
